The results in this text go back to patent US20240368191A1, “HETEROCYCLIC COMPOUNDS AND USES THEREOF” (Kumquat Biosciences Inc., priority 2021, published 2024).

The conditions of series [1]: microsomes.
Method: (§1) The metabolic stability of a test compound is assayed at 37° C. using pooled liver microsomes (mouse or human liver microsomes). An aliquot of 10 μL of 50 μM test compound is mixed with 490 μL of 0.611 mg/mL liver microsomes, then 50 μL of the mixtures are dispensed to the 96 well tubes and warmed at 37° C. for 10 minutes. The reactions are initiated by adding 50 μL of the pre-warmed NADPH regeneration system solution (add 1.2 μL solution, 240 μl solution B, mix with 10.56 ml KPBS) and then incubated at 37° C. The final incubation solution contains 100 mM potassium phosphate (pH 7.4), 1.3 mM NADP+, 3.3 mM glucose 6-phosphate, 0.4 Unit/mL of glucose 6-phosphate dehydrogenase, 3.3 mM magnesium chloride, 0.3 mg/mL liver microsomes and 0.5 μM test article. After 0, 15, 30 and 60 minutes in a shaking incubator, the reactions are terminated by adding 100 μL of acetonitrile containing 200 nM buspirone as an internal standard. All incubations are conducted in duplicate. […] Samples are then centrifuged at 3500 rpm for 10 minutes (4° C.) using Sorvall Legend XRT Centrifuge (Thermo Scientific, GE). Supernatants (40 μL) are transferred into clean 96-deep well plates. Each well is added with 160 μL of ultrapure water (Milli-Q, Millipore Corporation) with 0.1% (v/v) formic acid (Fisher Chemical), mixed thoroughly and subjected to LC/MS/MS analysis in MRM positive ionization mode.
(§2) All the samples are measured using a mass spectrometer (QTrap 5500 quadrupole/ion trap) coupled with a Shimadzu HPLC system. The HPLC system consisted of a Shimadzu series degasser, binary quaternary gradient pumps, column heater coupled to an autosampler, and a Phenomenex Gemini-NX, C18, 3.0 μm or Phenomenex Lunar, C8, 5.0 μM HPLC column (Phenomenex, Torrance, CA), and eluted with a mobile phase gradient consisting of Solution A (0.1% formic acid water) and Solution B (0.1% formic acid acetonitrile). The column temperature is maintained at 40° C. All the analytes are detected with positive-mode electrospray ionization (ES+).
(§3) The half-life for the metabolic degradation of the test compound is calculated by plotting the time-course disappearance of the test compound during the incubation with liver microsomes. Each plot is fitted to a first-order equation for the elimination of the test compound (% remaining compound) versus time using non-linear regression (Equation 1).
(§4) where Ct is the mean relative substrate concentration at time t and C0 is the initial concentration (0.5 μM) at time 0. Note that the area ratio of the substrate peak to an internal standard peak is proportional to the analyte concentration and is used for regression analysis to derive a value of k.
Series [2] can be described thus: Metabolic (microsomal) stability assay. The settings on record: pooled liver microsomes, pH 7.4.
Method: as §1, §2, §3, §4
The subject of the next series is LS123 cells. Put plainly: Cell proliferation assay (CellTiter-Glo), K-Ras G12S cells. Format: cell-based. Conditions: Comparative Compound A lacking the warhead vs Compound B. As for the experimental part:
A549 (ATCC CRL-185) and LS123 (ATCC CRL-255) cell lines comprise a G12S mutation and can be used to assess Ras cellular signaling in vitro, e.g., in response to the compounds herein. A549 culture medium is prepared with RPMI-1640 and 10% heat-inactivated FBS. LS123 culture medium is prepared with RPMI-1640 and 10% heat-inactivated FBS. A CellTiter-Glo (CTG) luminescent based assay (Promega) is used to assess growth of the cells, as a measurement of the ability of the compounds herein to inhibit Ras signaling in the cells. The cells (e.g., 800 per well) are seeded in their respective culture medium in standard tissue culture-treated 384-well format plates (Falcon #08-772-116) or ultra-low attachment surface 384-well format plates (S-Bio #MS-9384WZ). The day after plating, cells are treated with a dilution series (e.g., a 10 point 3-fold dilution series) of the compounds herein (e.g., approximately 40 μl final volume per well). Cell viability can be monitored (e.g., approximately 6 days later) according to the manufacturer's recommended instructions, where the CellTiter-Glo reagent is added (e.g., approximately 10 μl), vigorously mixed, covered, and placed on a plate shaker (e.g., approximately for 20 min) to ensure sufficient cell lysis prior to assessment of luminescent signal. The IC50 values are determined using the four parameter fit. The resulting IC50 value is a measurement of the ability of the compounds herein to reduce cell growth of Ras-driven cells (e.g., tumor cell lines) in vitro and/or in vivo.

The target of series [3] is T1, KRAS G12D 1-169 (His-tagged, GDP-loaded) (Homo sapiens, UniProt P01116, G12D).
T1 construct: His -tagged GDP-loaded G12D 1-169; made in house; host or cells: E. coli, e.g. BL21 (DE3)
T1 sequence (P01116 1-169 isoform P01116-2 G12D): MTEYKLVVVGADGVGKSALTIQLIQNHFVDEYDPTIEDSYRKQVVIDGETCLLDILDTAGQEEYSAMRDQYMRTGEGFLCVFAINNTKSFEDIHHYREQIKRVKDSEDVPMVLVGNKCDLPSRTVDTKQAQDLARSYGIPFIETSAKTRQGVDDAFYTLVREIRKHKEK
Put plainly: Covalent modification of KRAS protein by intact-protein LC-MS. Format: binding. Conditions: comparable or same conditions as K-Ras G12S. The gist of the method: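 Percent modification is derived from deconvoluted intact-protein LC-ESI-MS peak intensities of adducted versus unmodified KRAS. GDP-loaded His-tagged KRAS 1-169 (~2 μM, HEPES buffer at physiological conditions) was exposed to compound for 24 hrs at room temperature, then quenched with formic acid before C4 reversed-phase separation.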

For the compound `N#Cc1cnn(C(=O)N2C3CCC2CN(c2nc(OC[C@@]45CCCN4C[C@H](F)C5)nc4c(F)c(-c5ccc(F)c6sc(N)c(C#N)c56)c(Cl)cc24)C3)c1` [Compound A278, 1-(3-(7-(2-amino-3-cyano-7-fluorobenzo[b]thiophen-4-yl)-6-chloro-8-fluoro-2-(((2R,7aS)-2-fluorotetrahydro-1H-pyrrolizin-7a(5H)-yl)methoxy)quinazolin-4-yl)-3,8-diazabicyclo[3.2.1]-octane-8-carbonyl)-1H-pyr-azole-4-carbonitrile], the T½ microsomal stability entry in series [1] is listed as “greater than 10 mins”.
`N#Cc1c(N)sc2c(F)ccc(-c3c(Cl)cc4c(N5CC6(CCCN(C(=O)n7cncn7)C6)C5)nc(OC[C@@]56CCCN5C[C@H](F)C6)nc4c3F)c12` [Compound A266, 4-(4-(6-(1H-1,2,4-triazole-1-carbonyl)-2,6-diazaspiro[3.5]-nonan-2-yl)-6-chloro-8-fluoro-2-(((2R,7aS)-2-fluorotetra-hydro-1H-pyrrolizin-7a(5H)-yl)methoxy)quinazolin-7-yl)-2-amino-7-fluorobenzo[b]thio-phene-3-carbonitrile] displayed a half-life at 0.5 μM in series [2] of more than 10 min. The “Compound IC50 Ratio IC50 (Cpd A):IC50 (Cpd B)” value in the series with LS123 cells is listed as >4 (LS123 cells). Besides, the “covalent labeling of K-Ras G12D” value in series [3] is reported as “essentially no detectable labeling”.
